# Assay results taken from US7563793B2, “Pyrrolo[1,2-a]quinoxalin-5-(4H)-yl)sulfonyls and carbonyls and their use as estrogenic agents” (Wyeth, priority 2004, dated 2009).
# Legend:
# [1] = system: IL-6; experiment: IL-6 assay (ELISA) in Ad5-wt-ER infected HAECT-1 cells (IL-1β induced); type: cell-based, human; conditions: Homo sapiens; for IC50: HAECT1; for Emax: HAECT1, relative to maximal inhibition observed with E2, read-out: IL-6 Efficacy
# Protocol: (§1) After four hours, cells were washed with EBM-BSA and incubated overnight in the same medium. […] After two hours, cells were washed and incubated at 34° C. for 1 hour. […] Control (no ER infection) cells were processed as above without Ad5-wt-hERα virus infection. […] Cells were subsequently washed with 300 μl of Dulbecco's phosphate buffered saline and lysed in 50 μl of Cell Culture Lysis Reagent (Promega). Luciferase was determined on a Wallac Victor^2 Luminometer (Gaithersburg, Md.) using 10 μl of lysate and mixing with 100 lμof Promega Luciferase Assay reagent. […] For IC50 and EC50 calculations, mean IL-6, luciferase or CK values versus log10 of the compound concentration were fitted to a four parameter logistic equation. The IC50/EC50 value, ‘Hill slope’, upper and lower limits of the curve were iteratively estimated.
# [2] = system: creatine kinase; experiment: Creatine kinase assay in Ad5-wt-ER infected HAECT-1 cells; type: cell-based, human; conditions: Homo sapiens; for EC50: HAECT1, CK stimulation, N/O = activity not observed at concentrations tested, read-out: CK IC50; for Emax: HAECT1, relative to maximal stimulation observed with E2, read-out: CK Efficacy
# Protocol: as §1
# [3] = system: ER/Nf-kB; experiment: ER/NF-κB luciferase reporter assay in Ad5-wt-ER infected HAECT-1 cells (IL-1β induced); type: cell-based, human; conditions: for IC50: Homo sapiens, HAECT1; for ER/Nf-kB Efficacy: relative to maximal inhibition observed with E2
# Protocol: as §1
SMILES,IC50 [1] [nM],Emax [1] [%],EC50 [2] [nM],Emax [2] [%],melting point [°C],IC50 [3] [nM],ER/Nf-kB Efficacy [3] [%]
"CC[C@H]1c2cccn2-c2c(cc(F)c(F)c2F)N1S(=O)(=O)c1ccc(O)cc1 [97 (S), 4-{[(4S)-4-ethyl-7,8,9-trifluoropyrrolo[1,2-a]quinoxalin-5(4H)-yl]sulfonyl}phenol]",9,134,31,37,155 to 156,,
"CC[C@H]1c2ccc(C#N)n2-c2cc(F)c(F)cc2N1S(=O)(=O)c1ccc(O)cc1 [101 (S), (4S)-4-ethyl-7,8-difluoro-5-[(4-hydroxyphenyl)sulfonyl]-4,5-dihydropyrrolo[1,2-a]quinoxaline-1-carbonitrile]",424,131,91,30,191 to 192,,
"CC[C@@H]1c2cccn2-c2cc(F)c(F)cc2N1S(=O)(=O)c1ccc(O)c(C)c1 [102 (R), 4-{[(4R)-4-ethyl-7,8-difluoropyrrolo[1,2-a]quinoxalin-5(4H)-yl]sulfonyl}-2-methylphenol]",448,117,1770,31,160 to 162,,
"C[C@@H]1c2cccn2-c2ccc(F)cc2N1C(=O)c1ccc(O)cc1 [123 (R), 4-{[(4R)-7-fluoro-4-methylpyrrolo[1,2-a]quinoxalin-5(4H)-yl]carbonyl}phenol]",23,112,198,27,125 to 129,,
"CC[C@@H]1c2cccn2-c2ccc(F)cc2N1C(=O)c1cccc(O)c1 [127 (R), 3-{[(4R)-4-ethyl-7-fluoropyrrolo[1,2-a]quinoxalin-5(4H)-yl]carbonyl}phenol]",62,132,159,35,115 to 116,,
"CC[C@H]1c2ccc(C#N)n2-c2cc(F)c(F)cc2N1S(=O)(=O)c1ccc(O)c(C)c1 [Example 11B, (S)-4-ethyl-7,8-difluoro-5-[(4-hydroxy-3-methylphenyl)sulfonyl]-4,5-dihydropyrrolo[1,2-a]quinoxaline-1-carbonitrile]",,,830,96,208 to 210,332,96
"CCC1c2ccc(C#N)n2-c2cc(F)c(F)cc2N1S(=O)(=O)c1ccc(O)c(C)c1 (centres unmarked) [Example 12, 4-ethyl-7,8-difluoro-5-[(4-hydroxy-3-methylphenyl)sulfonyl]-4,5-dihydropyrrolo[1,2-a]quinoxaline-1-carbonitrile]",,,,,201 to 203,1820,91
"CCC1c2ccc(C#N)n2-c2ccc(F)cc2N1S(=O)(=O)c1ccc(O)c(C)c1 (centres unmarked) [Example 33, 4-ethyl-7-fluoro-5-[(4-hydroxy-3-methylphenyl)sulfonyl]-4,5-dihydropyrrolo[1,2-a]quinoxaline-1-carbonitrile]",,,,,192 to 194,1320,208
"CCC1c2ccc(C#N)n2-c2ccc(F)cc2N1S(=O)(=O)c1ccc(O)cc1 (centres unmarked) [Example 35, 4-ethyl-7-fluoro-5-[(4-hydroxyphenyl)sulfonyl]-4,5-dihydropyrrolo[1,2-a]quinoxaline-1-carbonitrile]",,,107,19,169 to 171,962,72
"CCC1c2ccc(C#N)n2-c2ccc(C(F)(F)F)cc2N1S(=O)(=O)c1ccc(O)c(C)c1 (centres unmarked) [Example 59, 4-ethyl-5-[(4-hydroxy-3-methylphenyl)sulfonyl]-7-(trifluoromethyl)-4,5-dihydropyrrolo[1,2-a]quinoxaline-1-carbonitrile]",,,3000,-13,194 to 196,9700,75
"CCC1c2cccn2-c2cc(O)c(F)cc2N1S(=O)(=O)c1ccc(O)c(C)c1 (centres unmarked) [Example 74, 4-ethyl-7-fluoro-5-[(4-hydroxy-3-methylphenyl)sulfonyl]-4,5-dihydropyrrolo[1,2-a]quinoxalin-8-ol]",,,,,194 to 196,157,75
"CC[C@H]1c2cccn2-c2ccc(Br)cc2N1S(=O)(=O)c1ccc(O)cc1 [Example 77, 4-{[(4S)-7-bromo-4-ethylpyrrolo[1,2-a]quinoxalin-5(4H)-yl]sulfonyl}phenol]",,,212,39,187 to 189,11,186
"CCC1c2ccc(C#N)n2-c2ccc(Br)cc2N1S(=O)(=O)c1ccc(O)cc1 (centres unmarked) [Example 80, 7-bromo-4-ethyl-5-[(4-hydroxyphenyl)sulfonyl]-4,5-dihydropyrrolo[1,2-a]quinoxaline-1-carbonitrile]",444,103,,,190 to 192,,
"CCC1c2cccn2-c2ccc(Br)cc2N1S(=O)(=O)c1cccc(O)c1 (centres unmarked) [Example 82, 3-[(7-bromo-4-ethylpyrrolo[1,2-a]quinoxalin-5(4H)-yl)sulfonyl]phenol]",51,114,,,176 to 178,,
"CCC1c2ccc(C#N)n2-c2cc(F)c(F)cc2N1S(=O)(=O)c1cccc(O)c1 (centres unmarked) [Example 85, 4-ethyl-7,8-difluoro-5-[(3-hydroxyphenyl)sulfonyl]-4,5-dihydropyrrolo[1,2-a]quinoxaline-1-carbonitrile]",696,112,,,179 to 182,,
"CCC1c2cccn2-c2ccc(F)cc2N1S(=O)(=O)c1cccc(O)c1 (centres unmarked) [Example 87, 3-[(4-ethyl-7-fluoropyrrolo[1,2-a]quinoxalin-5(4H)-yl)sulfonyl]phenol]",41,112,205,33,153 to 154,,
"CC[C@H]1c2ccc(C#N)n2-c2ccc(Br)cc2N1S(=O)(=O)c1ccc(O)cc1 [Example 89, (4S)-7-bromo-4-ethyl-5-[(4-hydroxyphenyl)sulfonyl]-4,5-dihydropyrrolo[1,2-a]quinoxaline-1-carbonitrile]",150,188,9.9,7,189 to 191,,
"CC[C@@H]1c2ccc(C#N)n2-c2ccc(Br)cc2N1S(=O)(=O)c1ccc(O)cc1 [Example 91, (4R)-7-bromo-4-ethyl-5-[(4-hydroxyphenyl)sulfonyl]-4,5-dihydropyrrolo[1,2-a]quinoxaline-1-carbonitrile]",1460,86,,-4,182 to 185,,
"CCC1c2ccc(C#N)n2-c2cc(F)c(F)cc2N1S(=O)(=O)c1ccc(O)cc1 (centres unmarked) [Example 93, 4-ethyl-7,8-difluoro-5-[(4-hydroxyphenyl)sulfonyl]-4,5-dihydropyrrolo[1,2-a]quinoxaline-1-carbonitrile]",299,105,,,205,,
"CCC1c2cccn2-c2c(cc(F)c(F)c2F)N1S(=O)(=O)c1ccc(O)cc1 (centres unmarked) [Example 98, 4-[(4-ethyl-7,8,9-trifluoropyrrolo[1,2-a]quinoxalin-5(4H)-yl)sulfonyl]phenol]",92,117,,,175 to 176,,
"CCC1c2cccn2-c2c(cc(F)c(F)c2F)N1S(=O)(=O)c1cccc(O)c1 (centres unmarked) [Example 100, 3-[(4-ethyl-7,8,9-trifluoropyrrolo[1,2-a]quinoxalin-5(4H)-yl)sulfonyl]phenol]",14,193,99,42,143 to 145,,
"CC[C@H]1c2ccc(C#N)n2-c2cc(F)c(F)cc2N1S(=O)(=O)c1ccc(OS(N)(=O)=O)c(C)c1 [Example 103, 4-{[(4S)-1-cyano-4-ethyl-7,8-difluoropyrrolo[1,2-a]quinoxalin-5(4H)-yl]sulfonyl}-2-methylphenyl sulfamate]",101,93,34,-18,204 to 207,,
"CC[C@H]1c2ccc(C#N)n2-c2cc(F)c(F)cc2N1S(=O)(=O)c1ccc(OS(N)(=O)=O)cc1 [Example 104, 4-{[(4S)-1-cyano-4-ethyl-7,8-difluoropyrrolo[1,2-a]quinoxalin-5(4H)-yl]sulfonyl}phenyl sulfamate]",178,110,,,196 to 201,,
"CCC1c2cccn2-c2ccc(F)cc2N1C(=O)c1ccc(O)cc1 (centres unmarked) [Example 118, 4-[(4-ethyl-7-fluoropyrrolo[1,2-a]quinoxalin-5(4H)-yl)carbonyl]phenol]",3,95,20,32,165 to 167,,
